Article PMC10065799, “High-throughput profiling of sequence recognition by tyrosine kinases and SH2 domains using bacterial peptide display” (eLife, 2023)

Key:
[1] = target: c-Src kinase domain (Homo sapiens, UniProt P12931); assay: pTyr-Var library bacterial peptide display kinase screen (enrichment scores); format: biochemical
[2] = test system: Fyn kinase domain; assay: as above; format: biochemical, human
[3] = test system: Hck kinase domain; assay: as above; format: biochemical, human
[4] = target: T1, c-Abl kinase domain (Mus musculus, UniProt P00520); assay: as above; format: biochemical
T1 sequence (P00520 242-493 limits assumed): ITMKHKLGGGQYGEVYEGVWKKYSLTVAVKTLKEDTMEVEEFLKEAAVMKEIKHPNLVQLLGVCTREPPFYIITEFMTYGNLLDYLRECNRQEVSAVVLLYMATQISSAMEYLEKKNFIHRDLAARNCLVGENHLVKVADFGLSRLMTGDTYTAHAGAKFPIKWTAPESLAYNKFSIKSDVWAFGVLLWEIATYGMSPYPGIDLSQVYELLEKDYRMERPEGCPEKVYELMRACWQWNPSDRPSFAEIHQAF

[5] = test system: Jak2; assay: as above; format: biochemical, human
[6] = test system: AncSZ kinase domain; assay: as above; format: biochemical
[7] = test system: Fer kinase domain; assay: as above; format: biochemical, mouse
[8] = test system: Fes; assay: as above; format: biochemical; details: mean of log2 of enrichment over R1-R6
[9] = test system: FGFR1 kinase domain; assay: as above; format: biochemical, human
[10] = test system: FGFR3 kinase domain; assay: as above; format: biochemical, human
[11] = test system: EPHB1 kinase domain; assay: as above; format: biochemical, human
[12] = test system: EPHB2 kinase domain; assay: as above; format: biochemical, human
[13] = test system: MERTK kinase domain; assay: as above; format: biochemical, human
[14] = test system: 4G10 Platinum pan-phosphotyrosine antibody; assay: Phosphorylated pTyr-Var library selection with biotinylated pan-phosphotyrosine antibody; format: binding, mouse; details: enrichment score, sheet SH2-vs-peptide
Protocol: After the desired time of library phosphorylation, kinase activity was quenched with 25 mM EDTA and the cells were washed with PBS containing 0.2% BSA. Kinase-treated cells were then labeled with a 1:1000 dilution of biotinylated 4G10 Platinum anti-phosphotyrosine antibody (Millipore) for an hour on ice and washed with PBS containing 0.1% BSA and 2 mM EDTA (isolation buffer). The cells were finally resuspended in PBS containing 0.1% BSA. The phosphorylated, antibody-labeled cells were then mixed with magnetic beads from Dynabeads FlowComp Flexi kit (Invitrogen), at a ratio of 37.5 μL of washed beads per 50 μL of cell suspension, diluted into 450 μL of isolation buffer. The suspension was rotated at 4 °C for 30 minutes, then 375 μL of isolation buffer was added and the beads were separated from the bulk solution on a magnetic rack. The beads were washed once with 1 mL of isolation buffer, and then the supertantant were removed by aspiration. […] The bead/lysate mixture was centrifuged to pellet the beads and the mixture was stored at -20 °C.

[15] = target: c-Src SH2 domain (Homo sapiens, UniProt P12931); assay: pTyr-Var library SH2 domain screen with SH2-dynabeads (enrichment scores); details: sheet c-Src
[16] = test system: SHP2 C-SH2 domain; assay: as above
[17] = test system: Grb2 SH2 domain; assay: as above
[18] = mean of log2 of enrichment over R1-R4
[19] = pTyr-Var library, enrichment score, replicate 1
[20] = pTyr-Var library, enrichment score, replicate 3
[21] = pTyr-Var library, enrichment score, replicate 4
[22] = mean of log2 enrichment of reference peptide, n = 5
[23] = pTyr-Var library, reference peptide enrichment, mean of n = 5
[24] = mean of log2 enrichment of reference peptide, n = 4
[25] = pTyr-Var library, reference peptide enrichment, mean of n = 4

DRVALYIAREG [AACS_Y117]
c-Src mean of log2(enrichment) [1, 18]: -1.224 | c-Src enrich. R1 [1, 19]: 0.458 | c-Src enrich. R3 [1, 20]: 0.3437 | c-Src enrich. R4 [1, 21]: 0.4348 | Fyn mean of log2(enrichment) [2, 18]: -1.315 | Fyn enrich. R1 [2, 19]: 0.792 | Fyn enrich. R3 [2, 20]: 0.3214 | Fyn enrich. R4 [2, 21]: 0.1749 | Hck mean of log2(enrichment) ([3]; mean of log2(variant) / mean of log2(reference), R1-R4): 0.5689 | Hck enrich. R1 [3, 19]: 0.9245 | Hck enrich. R3 [3, 20]: 0.4813 | Hck enrich. R4 [3, 21]: 0.2133 | c-Abl mean of log2(enrichment) [4, 18]: -0.4566 | c-Abl enrich. R1 [4, 19]: 0.7622 | c-Abl enrich. R3 [4, 20]: 0.701 | c-Abl enrich. R4 [4, 21]: 0.6553 | Jak2 mean of log2(enrichment) ([5]; mean of log2 of enrichment over R1-R3): 0.02155 | Jak2 enrich. R1 [5, 19]: 0.9714 | Jak2 enrich. R3 [5, 20]: 1.09 | AncSZ mean of log2(enrichment) ([6]; mean of log2 of enrichment over R1-R5): -0.07806 | AncSZ enrich. R1 [6, 19]: 1.096 | AncSZ enrich. R3 [6, 20]: 1.043 | AncSZ enrich. R4 [6, 21]: 0.9321 | AncSZ enrich. R5 ([6]; pTyr-Var library, enrichment score, replicate 5): 0.7233 | Fer mean of log2(enrichment) [7, 18]: -1.082 | Fer enrich. R1 [7, 19]: 0.5665 | Fer enrich. R3 [7, 20]: 0.4786 | Fer enrich. R4 [7, 21]: 0.5652 | Fes mean of log2(enrichment) [8]: 0.1816 | mean of log2(reference) [9, 22]: -0.9619 | ref. mean [9, 23]: 0.5188 | mean of log2(reference) [10, 22]: -0.5381 | ref. mean [10, 23]: 0.7165 | mean of log2(reference) [11, 24]: -0.6213 | ref. mean [11, 25]: 0.6707 | mean of log2(reference) [12, 24]: -0.9971 | ref. mean [12, 25]: 0.5335 | mean of log2(reference) [13, 24]: -1.387 | ref. mean [13, 25]: 0.3952 | 4G10 (mean) [14]: 0.8696 | mean of log2(reference) ([15]; mean of log2 enrichment of reference peptide, R1-R3): -1.13 | ref. mean ([15]; reference peptide, mean of R1-R3): 0.4875 | mean of log2(reference) ([16]; SHP2-C SH2, mean of log2 enrichment of reference, R1-R3): -0.1513 | ref. mean ([16]; reference peptide enrichment score, SHP2-C SH2, mean of R1-R3): 0.928 | mean of log2(reference) ([17]; Grb2 SH2, mean of log2 enrichment of reference, R1-R3): -0.1768 | ref. mean ([17]; reference peptide enrichment score, Grb2 SH2, mean of R1-R3): 0.8958
